Data as given in BindingDB's records for doi:10.1021/jm900681h (Amgen, 2009).

target: Cellular tumor antigen p53 (Homo sapiens, UniProt P04637); experiment: Induction of p53-Ser15 phosphorylation in human HCT116 cells after 24 hrs
Sequence (P04637 whole entry): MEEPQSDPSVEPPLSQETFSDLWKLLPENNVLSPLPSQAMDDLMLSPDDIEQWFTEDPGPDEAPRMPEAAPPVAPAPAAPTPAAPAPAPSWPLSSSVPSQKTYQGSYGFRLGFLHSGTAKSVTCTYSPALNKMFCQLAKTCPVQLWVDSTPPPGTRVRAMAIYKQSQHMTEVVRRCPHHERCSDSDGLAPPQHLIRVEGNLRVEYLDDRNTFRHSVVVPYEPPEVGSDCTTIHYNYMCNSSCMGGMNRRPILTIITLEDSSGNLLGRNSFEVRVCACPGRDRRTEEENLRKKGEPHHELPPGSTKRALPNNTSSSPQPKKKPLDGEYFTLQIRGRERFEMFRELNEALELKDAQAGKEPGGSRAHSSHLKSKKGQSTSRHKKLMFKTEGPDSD

| IC50 | SMILES |
| --- | --- |
| 1 µM | Cc1ccc2c(c1)C1=C(C(c3ccc(Br)cc3)O2)C(c2ccc(Br)cc2)n2ncnc2N1C (configuration not stated) |

target: not listed separately; experiment: Induction of p53 in human HCT116 cells coexpressing pp53TA-luc assessed as inhibition of cell proliferation after 8 hrs by firefly/renilla luciferase reporter assay

| SMILES | IC50 |
| --- | --- |
| CN1C2=C(C(c3ccc(Br)cc3)Oc3ccc(F)cc32)C(c2ccc(Br)cc2)n2ncnc21 (racemic) [(+/-)-syn-6,7-Bis(4-bromophenyl)-2-fluoro-12-methyl-7,12-dihydro-6H-chromeno[4,3-d][1,2,4]triazolo[1,5-a]pyrimidine] | 44.3 µM |
| Cc1cc2c(cc1F)OC(c1ccc(Br)cc1)C1=C2N(C)c2ncnn2C1c1ccc(Br)cc1 (racemic) [(+/-)-syn-6,7-Bis(4-bromophenyl)-3-fluoro-2,12-dimethyl-7,12-dihydro-6H-chromeno[4,3-d][1,2,4]triazolo[1,5-a]pyrimidine] | 11.4 µM |
| CN1C2=C(C(c3ccc(Cl)cc3)Oc3ccccc32)C(c2ccc(Br)cc2)n2ncnc21 (racemic) [(+/-)-syn-7-(4-Bromophenyl)-6-(4-chlorophenyl)-12-methyl-7,12-dihydro-6H-chromeno[4,3-d][1,2,4]triazolo[1,5-a]pyrimidine] | 15 µM |

These reach a lower IC50. Values come first.

| IC50 | SMILES |
| --- | --- |
| 3 µM | Cc1ccc2c(c1)C1=C(C(c3ccc(Br)cc3)O2)C(c2ccc(Br)cc2)n2ncnc2N1C (configuration not stated) |
| 6.5 µM | CCOc1cccc2c1C1=C(C(c3ccc(Br)cc3)O2)C(c2ccc(Br)cc2)n2ncnc2N1C (racemic) [(+/-)-syn-6,7-Bis(4-bromophenyl)-1-ethoxy-12-methyl-7,12-dihydro-6H-chromeno[4,3-d][1,2,4]triazolo[1,5-a]pyrimidine] |
| 9.37 µM | CN1C2=C(C(c3ccc(Cl)cc3)Oc3ccccc32)C(c2ccc(Cl)cc2)n2ncnc21 (racemic) [(+/-)-syn-6,7-Bis(4-chlorophenyl)-12-methyl-7,12-dihydro-6Hchromeno[4,3-d][1,2,4]triazolo[1,5-a]pyrimidine] |
